# Assay results: patent US11096985B2, “Antimicrobial peptides, their variants and uses” (priority 2015, dated 2021)
# Where a SMILES comes first, the peptide text is derived from it. [ ]: non-standard residue; d: D form.
# Key:
# [1] = system: clinical strains of Escherichia coli; experiment: MIC, clinical strains of E. coli; assay type: cell-based; design: unit: μg/ml; settings: microdilution, Muller Hinton broth-cation adjusted, 0.02% BSA, 0.2% acetic acid
# Description: (§1) Minimum inhibition concentrations (MICs) were determined against Escherichia coli (ATCC 25922), Staphylococcus aureus (ATCC 25923), Klebsiella pneumoniae (ATCC 10031) and Pseudomonas aeruginosa (ATCC 27853). Also clinical strains of E. coli, K. pneumoniae, E. cloacae, P. aeruginosa, Serratia marcescens, Proteus mirabilis, S. pneumoniae, Acinetobacter baumannii, A. johnsonii and S. aureus were used for MICs assays. Additionally, clinical strains of yeast including Candida albicans, C. glabrata, C. parapsilosis and C. quillermondiae were used. The susceptibility of these microorganisms to Chain peptides were determined using micro broth dilution assay. Colonies of the respective microorganism from Muller Hinton (MH) agar plates incubated overnight were suspended in MH broth media and final concentration of microorganism was adjusted to 5.0×10^5 cfu/ml. An aliquot of 10 μl of each Chain peptide, or gentamicin, tetracycline as reference antibiotics were added in differing concentrations along with 90 μl of bacterial suspension to 96 well polypropylene plates and incubated at 37° C. for 20 to 24 hours. Concentrations of Chain peptides and reference antibiotics ranged from 0.125 to 128 μg/ml and the MICs were recorded as the lowest concentration with no visual growth of bacteria. Similarly, antifungal MICs were tested in Potato dextrose broth.
# (§2) Clinical strains of yeasts including Candida albicans, C. glabrata, C. parapsilosis and C. quillermondiae were also tested with the 12 Chain peptides. The minimum inhibitory concentration (MICs) varied between these peptides and are presented in Tables 4a, 4b, 4c and 5a, 5b, 5c. Peptides Chain 105, 201 and 308 are broad spectrum antimicrobials with MICs between 0.5-32 μg/ml against all the bacteria and yeasts tested, except Serratia marcescens and Proteus mirabilis, against which the MICs were between 64-128 μg/ml. Peptide Chain 306 has narrow spectrum activity against E.coli at 1 μg/ml and for the rest of the bacterial strains at >32 μg/ml (FIG. 10).
# [2] = system: clinical strains of Klebsiella pneumoniae; experiment: MIC, clinical strains of K. pneumoniae; assay type: cell-based; design: unit: μg/ml; settings: microdilution, Muller Hinton broth-cation adjusted, 0.02% BSA, 0.2% acetic acid
# Description: as §1, §2
# [3] = system: clinical strains of Pseudomonas aeruginosa; experiment: MIC, clinical strains of P. aeruginosa; assay type: cell-based; design: unit: μg/ml; settings: microdilution, Muller Hinton broth-cation adjusted, 0.02% BSA, 0.2% acetic acid
# Description: as §1, §2
# [4] = system: clinical strains of Serratia marcescens; experiment: MIC, clinical strains of Serratia marcescens; assay type: cell-based; design: unit: µg/mL; settings: microdilution, Muller Hinton broth-cation adjusted, 0.02% BSA, 0.2% acetic acid
# Description: as §1, §2
# [5] = system: clinical strains of Proteus mirabilis; experiment: MIC, clinical strains of Proteus mirabilis; assay type: cell-based; design: unit: µg/mL; settings: microdilution, Muller Hinton broth-cation adjusted, 0.02% BSA, 0.2% acetic acid
# Description: as §1, §2
# [6] = system: clinical strains of Enterobacter cloacae; experiment: MIC, clinical strains of Enterobacter cloacae; assay type: cell-based; design: unit: μg/ml; settings: microdilution, Muller Hinton broth-cation adjusted, 0.02% BSA, 0.2% acetic acid
# Description: as §1, §2
# [7] = system: clinical strains of Staphylococcus aureus; experiment: MIC, clinical strains of S. aureus; assay type: cell-based; design: unit: μg/ml; settings: microdilution, Muller Hinton broth-cation adjusted, 0.02% BSA, 0.2% acetic acid
# Description: as §1, §2
# [8] = system: clinical strains of Streptococcus pneumoniae; experiment: MIC, clinical strains of Streptococcus pneumoniae; assay type: cell-based; design: unit: µg/mL; settings: microdilution, Muller Hinton broth-cation adjusted, 0.02% BSA, 0.2% acetic acid
# Description: as §1, §2
# [9] = system: clinical strains of Candida albicans; experiment: MIC, clinical yeast strains, Candida albicans; assay type: cell-based; design: unit: μg/ml
# Description: as §1, §2
# [10] = system: clinical strains of C. glabrata; experiment: MIC, clinical yeast strains, C. glabrata; assay type: cell-based, Candida glabrata; design: unit: μg/ml
# Description: as §1, §2
# [11] = system: clinical strains of C. parapsilosis; experiment: MIC, clinical yeast strains, C. parapsilosis; assay type: cell-based, Candida parapsilosis; design: unit: μg/ml
# Description: as §1, §2
# [12] = system: clinical strains of C. quillermondiae; experiment: MIC, clinical yeast strains, C. quillermondiae; assay type: cell-based; settings: C. quillermondiae clinical yeast strain 1
# Description: as §1, §2
structure (smiles),measurement,setting,value
CC(C)C[C@@H](NC(=O)[C@@H](CCCCN)NC(=O)[C@@H](CCCCN)NC(=O)[C@@H](Cc1ccccc1)NC(=O)[C@@H](CC(C)C)NC(=O)[C@@H](Cc1c[nH]c2ccccc12)NC(=O)[C@@H](CCCNC(=N)N)NC(=O)[C@@H](Cc1c[nH]c2ccccc12)NC(=O)[C@@H](CCCCN)NC(=O)[C@@H](CCCNC(=N)N)NC(=O)[C@H](N)CCCCN)C(=O)O [Chain310D] (H-[dK][dR][dK][dW][dR][dW][dL][dF][dK][dK][dL]-OH),Minimum inhibitory concentration,[1]; Escherichia coli clinical strain 1,4
same,Minimum inhibitory concentration,[1]; Escherichia coli clinical strain 2,32
same,Minimum inhibitory concentration,[1]; Escherichia coli clinical strain 3,16
same,Minimum inhibitory concentration,[1]; Escherichia coli clinical strain 4,16
same,Minimum inhibitory concentration,[1]; Escherichia coli clinical strain 5,16
same,Minimum inhibitory concentration,[2]; Klebsiella pneumoniae clinical strain 1,64
same,Minimum inhibitory concentration,[2]; Klebsiella pneumoniae clinical strain 2,64
same,Minimum inhibitory concentration,[2]; Klebsiella pneumoniae clinical strain 3,128
same,Minimum inhibitory concentration,[2]; Klebsiella pneumoniae clinical strain 4,64
same,Minimum inhibitory concentration,[2]; Klebsiella pneumoniae clinical strain 5,32
same,Minimum inhibitory concentration,[3]; Pseudomonas aeruginosa clinical strain 1,8
same,Minimum inhibitory concentration,[3]; Pseudomonas aeruginosa clinical strain 2,16
same,Minimum inhibitory concentration,[3]; Pseudomonas aeruginosa clinical strain 3,16
same,Minimum inhibitory concentration,[3]; Pseudomonas aeruginosa clinical strain 4,8
same,Minimum inhibitory concentration,[3]; Pseudomonas aeruginosa clinical strain 5,4
same,Minimum inhibitory concentration,[4]; Serratia marcescens clinical strain 1,>128
same,Minimum inhibitory concentration,[4]; Serratia marcescens clinical strain 2,>128
same,Minimum inhibitory concentration,[4]; Serratia marcescens clinical strain 3,>128
same,Minimum inhibitory concentration,[4]; Serratia marcescens clinical strain 4,>128
same,Minimum inhibitory concentration,[4]; Serratia marcescens clinical strain 5,>128
same,Minimum inhibitory concentration,[5]; Proteus mirabilis clinical strain 1,>128
same,Minimum inhibitory concentration,[5]; Proteus mirabilis clinical strain 2,>128
same,Minimum inhibitory concentration,[5]; Proteus mirabilis clinical strain 3,>128
same,Minimum inhibitory concentration,[5]; Proteus mirabilis clinical strain 4,>128
same,Minimum inhibitory concentration,[5]; Proteus mirabilis clinical strain 5,>128
same,Minimum inhibitory concentration,[6]; Enterobacter cloacae clinical strain 1,128
same,Minimum inhibitory concentration,[6]; Enterobacter cloacae clinical strain 2,64
same,Minimum inhibitory concentration,[6]; Enterobacter cloacae clinical strain 3,16
same,Minimum inhibitory concentration,[6]; Enterobacter cloacae clinical strain 4,8
same,Minimum inhibitory concentration,[6]; Enterobacter cloacae clinical strain 5,16
same,Minimum inhibitory concentration,[7]; Staphylococcus aureus clinical strain 1,8
same,Minimum inhibitory concentration,[7]; Staphylococcus aureus clinical strain 2,16
same,Minimum inhibitory concentration,[7]; Staphylococcus aureus clinical strain 3,8
same,Minimum inhibitory concentration,[7]; Staphylococcus aureus clinical strain 4,8
same,Minimum inhibitory concentration,[7]; Staphylococcus aureus clinical strain 5,4
same,Minimum inhibitory concentration,[8]; Streptococcus pneumoniae clinical strain 1,128
same,Minimum inhibitory concentration,[8]; Streptococcus pneumoniae clinical strain 2,128
same,Minimum inhibitory concentration,[8]; Streptococcus pneumoniae clinical strain 3,128
same,Minimum inhibitory concentration,[8]; Streptococcus pneumoniae clinical strain 4,128
same,Minimum inhibitory concentration,[8]; Streptococcus pneumoniae clinical strain 5,64
same,Minimum inhibitory concentration,[9]; Candida albicans clinical yeast strain 1,16
same,Minimum inhibitory concentration,[9]; Candida albicans clinical yeast strain 2,16
same,Minimum inhibitory concentration,[9]; Candida albicans clinical yeast strain 3,16
same,Minimum inhibitory concentration,[9]; Candida albicans clinical yeast strain 4,16
same,Minimum inhibitory concentration,[9]; Candida albicans clinical yeast strain 5,16
same,Minimum inhibitory concentration,[10]; C. glabrata clinical yeast strain 1,16
same,Minimum inhibitory concentration,[10]; C. glabrata clinical yeast strain 2,16
same,Minimum inhibitory concentration,[10]; C. glabrata clinical yeast strain 3,128
same,Minimum inhibitory concentration,[10]; C. glabrata clinical yeast strain 4,128
same,Minimum inhibitory concentration,[11]; C. parapsilosis clinical yeast strain 1,64
same,Minimum inhibitory concentration,[11]; C. parapsilosis clinical yeast strain 2,64
same,Minimum inhibitory concentration,[11]; C. parapsilosis clinical yeast strain 3,64
same,Minimum inhibitory concentration,[11]; C. parapsilosis clinical yeast strain 4,16
same,Minimum inhibitory concentration,[12],8
